Assay type in all cases: biochemical
The target in one experiment is T1, CD45 (Homo sapiens, UniProt P08575).
T1 sequence (P08575 653-912 limits assumed): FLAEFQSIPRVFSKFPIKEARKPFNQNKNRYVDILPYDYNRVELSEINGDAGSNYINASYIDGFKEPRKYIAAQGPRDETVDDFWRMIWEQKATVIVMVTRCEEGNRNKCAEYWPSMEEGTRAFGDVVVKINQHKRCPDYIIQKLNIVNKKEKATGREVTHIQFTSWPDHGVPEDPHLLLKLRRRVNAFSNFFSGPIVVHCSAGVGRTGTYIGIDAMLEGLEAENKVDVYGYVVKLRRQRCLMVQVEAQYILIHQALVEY
As to the kind of experiment: CD45 counterscreen. The note with it: read-out: IC50 CD45 (DiFMUP).

The next experiment concerns the target T2, PTP-PEST (Homo sapiens, UniProt Q05209).
T2 sequence (Q05209 2-323): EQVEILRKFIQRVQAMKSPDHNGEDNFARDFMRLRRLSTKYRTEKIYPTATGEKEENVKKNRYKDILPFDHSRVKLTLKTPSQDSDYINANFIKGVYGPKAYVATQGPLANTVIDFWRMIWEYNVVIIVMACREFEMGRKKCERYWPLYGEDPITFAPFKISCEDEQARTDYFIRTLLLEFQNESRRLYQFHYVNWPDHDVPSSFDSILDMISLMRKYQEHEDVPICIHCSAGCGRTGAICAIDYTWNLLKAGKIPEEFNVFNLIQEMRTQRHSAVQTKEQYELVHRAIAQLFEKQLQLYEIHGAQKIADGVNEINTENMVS
As to the kind of experiment: PTP-PEST inhibition assay with fluorogenic substrates. The conditions noted are these: pH 6.5.

The target in a further experiment is T3, HePTP (Homo sapiens, UniProt P35236).
T3 sequence (P35236 65-360): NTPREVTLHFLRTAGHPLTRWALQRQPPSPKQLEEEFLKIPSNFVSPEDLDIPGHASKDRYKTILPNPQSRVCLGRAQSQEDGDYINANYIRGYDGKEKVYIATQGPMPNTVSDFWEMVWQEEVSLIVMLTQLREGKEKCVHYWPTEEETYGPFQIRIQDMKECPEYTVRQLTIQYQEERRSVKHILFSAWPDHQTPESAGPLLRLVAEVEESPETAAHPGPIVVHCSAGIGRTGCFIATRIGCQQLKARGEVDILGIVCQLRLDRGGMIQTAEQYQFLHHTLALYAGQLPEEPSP
As to the kind of experiment: HePTP counterscreen. The note with it: read-out: IC50 HePTP (DiFMUP). In general terms: Counterscreens check selectivity or assay interference.

The target of the next experiment is T4, LYP (Homo sapiens, UniProt Q9Y2R2).
T4 sequence (Q9Y2R2 2-309): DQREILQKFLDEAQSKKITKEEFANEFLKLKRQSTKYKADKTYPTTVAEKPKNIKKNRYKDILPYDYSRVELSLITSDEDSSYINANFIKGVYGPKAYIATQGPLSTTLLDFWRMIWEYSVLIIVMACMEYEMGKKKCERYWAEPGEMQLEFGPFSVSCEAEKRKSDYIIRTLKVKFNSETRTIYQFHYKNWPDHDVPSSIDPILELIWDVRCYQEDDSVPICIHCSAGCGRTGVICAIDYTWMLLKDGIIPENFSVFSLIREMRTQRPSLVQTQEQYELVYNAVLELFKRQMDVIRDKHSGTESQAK
As to the kind of experiment: LYP inhibition assay with fluorogenic substrates. The conditions noted are these: for selectivity for LYP over PTP-PEST in dose-response screens: in vitro, Table 1; for LYP versus PTP-PEST inhibition in comparative library screen: nominal 5 µM, DiFMUP and peptide 1; for IC50: pH 6.5.

The next experiment concerns the target T5, TCPTP (Homo sapiens, UniProt P17706).
T5 sequence (P17706 5-275 limits assumed): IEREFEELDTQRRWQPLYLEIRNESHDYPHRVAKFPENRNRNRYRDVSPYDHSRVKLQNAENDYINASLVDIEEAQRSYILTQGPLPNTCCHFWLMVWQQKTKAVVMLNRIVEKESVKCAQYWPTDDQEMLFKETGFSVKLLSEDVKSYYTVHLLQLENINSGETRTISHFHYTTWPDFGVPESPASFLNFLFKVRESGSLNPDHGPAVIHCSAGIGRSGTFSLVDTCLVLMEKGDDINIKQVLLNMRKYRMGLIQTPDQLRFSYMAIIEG
Description: TCPTP inhibition assay with fluorogenic substrates. The note with it: for IC50: pH 7.1.

For another experiment, the target named is T6, PTP1B (Homo sapiens, UniProt P18031).
T6 sequence (P18031 3-277 limits assumed): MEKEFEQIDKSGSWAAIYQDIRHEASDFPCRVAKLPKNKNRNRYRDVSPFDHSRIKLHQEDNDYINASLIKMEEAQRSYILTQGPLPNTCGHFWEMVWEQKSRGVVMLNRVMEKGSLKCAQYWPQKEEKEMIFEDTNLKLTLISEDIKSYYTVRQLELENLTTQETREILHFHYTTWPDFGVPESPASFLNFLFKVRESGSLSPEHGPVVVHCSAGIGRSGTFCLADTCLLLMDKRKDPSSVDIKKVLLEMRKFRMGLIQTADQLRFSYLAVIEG
As to the kind of experiment: PTP1B inhibition assay with fluorogenic substrates. The conditions noted are these: for IC50: pH 7.1; for PTP1B inhibition in library screen, peptide 2 versus DiFMUP: nominal 5 µM.

[1] abbreviates: read-out: IC50 PEST (DiFMUP), substrate DiFMUP 1.5 µM.
Where [2] appears, read: read-out: IC50 PEST (peptide 1), substrate peptide 1 10 µM.
The mark [3] stands for this setting: read-out: IC50 LYP (DiFMUP), substrate DiFMUP 1.5 µM.
[4] abbreviates: read-out: IC50 LYP (peptide 1), substrate peptide 1 10 µM.
Setting [5] is: read-out: IC50 PEST (peptide 1).
Setting [6] is: read-out: IC50 TCPTP (DiFMUP), substrate DiFMUP 1.5 µM.
The mark [7] stands for this setting: read-out: IC50 TCPTP (peptide 2), substrate peptide 2 60 µM.
[8] abbreviates: read-out: IC50 PTP1B (DiFMUP), substrate DiFMUP 1.5 µM.
Where [9] appears, read: read-out: IC50 PTP1B (peptide 2), substrate peptide 2 60 µM.

Where two headings read alike, the source gives them in different places.

In general, IC50 refers to the midpoint of a concentration-inhibition curve. Consider `CP(C)c1ccccc1.[Cl][Au]` [Compound 13, Dimethylphenylphosphine-Au(I)-Cl], for which the IC50 at CD45 (substrate DiFMUP) is greater than 100 µM; at PTP-PEST (setting [1]) it was 70 ± 2 µM; on PTP-PEST (setting [2]) it was 30 ± 2 µM; on HePTP (substrate DiFMUP), greater than 50 µM; on LYP (setting [3]) it was 3.5 ± 0.3 µM; at LYP (setting [4]), 2 ± 0.3 µM. Also, the “selectivity for LYP over PTP-PEST in dose-response screens” value on LYP is on record as “selective for LYP over the ~ 70% identical PTP-PEST”. The “LYP versus PTP-PEST inhibition in comparative library screen” value (“LYP versus PTP-PEST inhibition” below) at LYP is reported as “more potent inhibitors of LYP than PTP-PEST regardless of the substrate used”.

On to `O=S(=O)(O)c1ccc([P+]([Au-][Cl])(c2ccccc2)c2ccc(S(=O)(=O)O)cc2)cc1` [Compound 18, 4,4′-(Phenylphosphinidene)bis(benzenesulfonic acid)-Au(I)-Cl], for which the “TCPTP versus PTP1B inhibition in comparative library screen” value on TCPTP was “slightly TCPTP selective with peptide 2”. The “selectivity for TCPTP (over PTP1B)” value on TCPTP is “approximately 2 fold”. For the same compound, the IC50 at TCPTP (read-out: IC50 TCPTP (DiFMUP)) stood at 16 ± 1 µM; on TCPTP (read-out: IC50 TCPTP (peptide 2)), 7.5 ± 0.3 µM; at CD45, 26 ± 1 µM; at PTP-PEST (read-out: IC50 PEST (DiFMUP)) it was 39 ± 1 µM; on PTP-PEST (setting [5]), 10 ± 2 µM; at HePTP, 16 ± 2 µM. Moreover, the IC50 at PTP1B (read-out: IC50 PTP1B (DiFMUP)) came to 16 ± 1 µM; at PTP1B (read-out: IC50 PTP1B (peptide 2)), 15 ± 1 µM; on LYP (setting [3]) it was 2 ± 0.1 µM; at LYP (setting [4]), 0.85 ± 0.05 µM. The “selectivity between PTP1B and TCPTP in dose-response screens” value (from here on “selectivity between PTP1B and TCPTP”) on PTP1B is given as “no significant selectivity with DiFMUP”. At LYP, the “selectivity for LYP over PTP-PEST in dose-response screens” value is reported as “selective for LYP over the ~ 70% identical PTP-PEST”.

`[Cl][Au][PH](c1ccco1)(c1ccco1)c1ccco1` [Compound 19, Tri-2-furylphosphine-Au(I)-Cl]: the IC50 on TCPTP (setting [6]) came out at 2.4 ± 0.2 µM; at TCPTP (setting [7]) it was 2.2 ± 0.3 µM; at PTP1B (setting [8]) it was 0.33 ± 0.02 µM; at PTP1B (setting [9]) it was 0.2 ± 0.02 µM. For the same compound, the “selectivity between PTP1B and TCPTP” value at PTP1B (Table 2) is “selective for PTP1B with both substrates”. On PTP1B, the “PTP1B inhibition in library screen, peptide 2 versus DiFMUP” value was “inhibit PTP1B better with peptide 2 than with DiFMUP”.

Consider `Fc1c(F)c(F)c([PH]([Au][Cl])(c2c(F)c(F)c(F)c(F)c2F)c2c(F)c(F)c(F)c(F)c2F)c(F)c1F` [Compound 40], for which the IC50 at TCPTP (setting [6]) was 6.7 ± 0.2 µM; on TCPTP (setting [7]), 57 ± 1 µM; on PTP1B (setting [8]), 7.5 ± 0.2 µM; on PTP1B (setting [9]) it was 5.4 ± 0.3 µM. Moreover, the “selectivity between PTP1B and TCPTP” value on PTP1B (Table 2) is reported as “no significant selectivity with DiFMUP”. Moreover, the “PTP1B inhibition in library screen, peptide 2 versus DiFMUP” value on PTP1B is given as “the reverse seems to be true”. Moreover, on PTP1B (with peptide 2 as substrate), the “selectivity for PTP1B (over TCPTP)” value was roughly 10 fold.

Turning to `N#CCC[P+](CCC#N)([Au-][Cl])c1ccccc1` [Compound 28, Bis(2-cyanoethyl)phenylphosphine-Au(I)-Cl], the IC50 is greater than 70 µM on CD45 (substrate DiFMUP); greater than 80 µM on PTP-PEST (setting [1]); 33 ± 1 µM at PTP-PEST (setting [2]); greater than 50 µM at HePTP (substrate DiFMUP); 3.5 ± 0.1 µM at LYP (setting [3]); 2.5 ± 0.6 µM at LYP (setting [4]). Also, the “selectivity for LYP over PTP-PEST in dose-response screens” value at LYP is listed as “selective for LYP over the ~ 70% identical PTP-PEST”.

As to `O=S(=O)(O)c1cccc([P+]([Au-][Cl])(c2ccccc2)c2ccccc2)c1` [Compound 12, 3-(Diphenylphosphino)benzenesulfonic acid-Au(I)-Cl], the IC50 at CD45 was greater than 70 µM; at PTP-PEST (read-out: IC50 PEST (DiFMUP)) it was 70 ± 2 µM; on PTP-PEST (setting [5]) it was 4 ± 0.2 µM; on HePTP, 40 ± 1 µM; on LYP (setting [3]), 2 ± 0.1 µM; at LYP (setting [4]), 1.9 ± 0.2 µM. Moreover, the “LYP versus PTP-PEST inhibition” value at LYP is given as “appear LYP-selective when DiFMUP is used in the assay, but not when the peptide is used”. Moreover, the “selectivity for LYP over PTP-PEST” value at LYP (with DiFMUP as substrate) is on record as 35 fold; on LYP (with peptide 1 as substrate), 2 fold.

Regarding `[Cl][Au][PH](C1CCCCC1)(C1CCCCC1)C1CCCCC1` [Compound 25, Tricyclohexylphosphine-Au(I)-Cl], the IC50 is greater than 70 µM at CD45 (substrate DiFMUP); 45 ± 1 µM at PTP-PEST (setting [1]); greater than 80 µM at PTP-PEST (setting [2]); 20 ± 2 µM at HePTP (substrate DiFMUP); 25 ± 1 µM at LYP (setting [3]); 61 ± 1 µM at LYP (setting [4]). At LYP, the “LYP versus PTP-PEST inhibition” value was “appear LYP-selective when DiFMUP is used in the assay, but not when the peptide is used”.

(Values after publication PMC2801581 (Journal of medicinal chemistry, 2009).)
